The structures appear in SMILES notation.

From patent US11267808B2, “Benzamide derivatives as PPAR-gamma modulators” (MEDIBIOFARMA, S.L., priority 2017, dated 2022) come the findings set out here.

The experiment deals with Human PPAR-gamma (Homo sapiens (Human), UniProt P37231). Briefly: Human PPAR-gamma (h) (agonist radioligand) binding assay. The following applies: inhibition of radioligand specific binding; class ranges defined in μM. As for the experimental part: The compounds of the present invention were assayed for binding to the Human PPAR-gamma (h) (agonist radioligand) Assay and were tested at several concentrations for IC50 determination.
Human PPAR-gamma, sequence (P37231 whole entry): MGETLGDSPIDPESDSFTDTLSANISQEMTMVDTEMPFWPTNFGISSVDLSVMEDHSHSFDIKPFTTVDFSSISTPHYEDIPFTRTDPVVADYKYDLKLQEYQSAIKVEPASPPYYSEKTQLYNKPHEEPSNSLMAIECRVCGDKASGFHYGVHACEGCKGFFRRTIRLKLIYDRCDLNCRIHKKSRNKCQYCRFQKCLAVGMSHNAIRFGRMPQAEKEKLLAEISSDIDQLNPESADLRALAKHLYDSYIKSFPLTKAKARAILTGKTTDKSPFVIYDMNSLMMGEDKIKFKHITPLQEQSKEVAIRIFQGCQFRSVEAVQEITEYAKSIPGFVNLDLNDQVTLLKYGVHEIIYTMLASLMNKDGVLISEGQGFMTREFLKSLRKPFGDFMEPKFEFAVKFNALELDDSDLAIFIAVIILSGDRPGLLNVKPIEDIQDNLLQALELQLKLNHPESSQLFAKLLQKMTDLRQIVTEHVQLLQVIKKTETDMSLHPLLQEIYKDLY
Compound binding was calculated as a % inhibition of the binding of a radioactively labelled ligand specific for each target, as described in (FERRY, Gilles, et al. Binding of prostaglandins to human PPARγ: tool assessment and new natural ligands. European journal of pharmacology, 2001, vol. 417, no 1, p. 77-89).
The IC50 values (concentration causing a half-maximal inhibition of control specific binding) was determined by non-linear regression analysis of the competition curves generated with mean replicate values using Hill equation curve fitting
where Y=specific binding, A=left asymptote of the curve, D=right asymptote of the curve, C=compound concentration, C50=IC50, and nH=slope factor. This analysis was performed using software developed at EUROFINS Cerep Company (Hill software) and validated by comparison with data generated by the commercial software SigmaPlot® 4.0 for Windows® (© 1997 by SPSS Inc.).

For orientation: IC50 means the concentration that inhibits the measured activity by half. In turn, `N#Cc1ccc(Cl)c(C(=O)Nc2ccnc(-c3ccccc3)c2)c1` [Example 1, 2-chloro-5-cyano-N-(2-phenylpyridin-4-yl)benzamide] had an IC50 of less than 0.2 µM.

`N#Cc1ccc(Cl)c(C(=O)Nc2ccc(-c3ccccc3)nc2)c1` [Example 2, 2-chloro-5-cyano-N-(6-phenylpyridin-3-yl)benzamide] registered an IC50 of less than 0.2 µM.

In the case of `N#Cc1ccc(Cl)c(C(=O)Nc2ccnc(-c3ccc(F)cc3)c2)c1` [Example 3, 2-chloro-5-cyano-N-(2-(4-fluorophenyl)pyridin-4-yl)benzamide], the IC50 lay within 0.2 to 1 µM.

For the molecule `N#Cc1ccc(Cl)c(C(=O)Nc2ccc(-c3ccc(F)cc3)nc2)c1` [Example 4, 2-chloro-5-cyano-N-(6-(4-fluorophenyl)pyridin-3-yl)benzamide], the IC50 is less than 0.2 µM.

Take `N#Cc1ccc(Cl)c(C(=O)Nc2ccc(-c3cccnc3)nc2)c1` [Example 5, N-([2,3′-bipyridin]-5-yl)-2-chloro-5-cyanobenzamide]: the IC50 was less than 0.2 µM.

`N#Cc1ccc(Cl)c(C(=O)Nc2ccnc(-c3cccnc3)c2)c1` [Example 6, N-([2,3′-bipyridin]-4-yl)-2-chloro-5-cyanobenzamide] showed an IC50 of 1 to 50 µM.

On to `N#Cc1ccc(Cl)c(C(=O)Nc2ccc(-c3ccncc3)nc2)c1` [Example 7, N-([2,4′-bipyridin]-5-yl)-2-chloro-5-cyanobenzamide], for which the IC50 was in the range of 1 to 50 µM.

Regarding `N#Cc1ccc(F)c(C(=O)Nc2ccc(-c3cccnc3)nc2)c1` [Example 9, N-([2,3′-bipyridin]-5-yl)-5-cyano-2-fluorobenzamide], the IC50 was less than 0.2 µM.

Consider `N#Cc1ccc(F)c(C(=O)Nc2ccc(-c3ccc(F)cc3)nc2)c1` [Example 10, 5-cyano-2-fluoro-N-(6-(4-fluorophenyl)pyridin-3-yl)benzamide], for which the IC50 is less than 0.2 µM.

`N#Cc1ccc(Cl)c(C(=O)Nc2ccc(-c3ccccn3)nc2)c1` [Example 13, N-([2,2′-bipyridin]-5-yl)-2-chloro-5-cyanobenzamide] returned an IC50 of less than 0.2 µM.

Molecule `CN1CCN(c2ccc(NC(=O)c3cc(C#N)ccc3Cl)cn2)CC1` [Example 14, 2-chloro-5-cyano-N-(6-(4-methylpiperazin-1-yl)pyridin-3-yl)benzamide] had an IC50 of 1 to 50 µM.

Take `CN1CCN(c2cc(NC(=O)c3cc(C#N)ccc3Cl)ccn2)CC1` [Example 15, 2-chloro-5-cyano-N-(2-(4-methylpiperazin-1-yl)pyridin-4-yl)benzamide]: the half-maximal inhibitory concentration (IC50) was no less than 50 µM.

On to `N#Cc1ccc(Cl)c(C(=O)Nc2ccnc(N3CCOCC3)c2)c1` [Example 16, 2-chloro-5-cyano-N-(2-morpholinopyridin-4-yl)benzamide], for which the IC50 fell in the range of 1 to 50 µM.

`N#Cc1ccc(Cl)c(C(=O)Nc2ccc(N3CCOCC3)nc2)c1` [Example 17, 2-chloro-5-cyano-N-(6-morpholinopyridin-3-yl)benzamide] came in with an IC50 of 1 to 50 µM.
